From US20240174714A1, “TREATMENT OF SKIN DISORDERS” (priority 2021, published 2024)
Converted amounts (≈) assume the structure as drawn. Like-named read-outs stand apart in the source and are kept apart here. Blank lines part the entries; values can stand above or below the molecule they belong to. Square brackets hold non-standard residues; d marks the D form. Peptide text beside a SMILES is read from it. * marks the point of attachment. NH((S)CH(Me)CH2NMe2) = C[C@@H](CN(C)C)N*; NH(1-CH2NMe2-cBu) = CN(C)CC1(N*)CCC1; Gly(octyl) = CCCCCCCC[C@H](N)C(=O)O; Oxazole4CO(2-Me) = Cc1nc(C(=O)*)co1; hCha = N[C@@H](CCC1CCCCC1)C(=O)O; X8 = O=C(c1coc(-c2ccccc2)n1)*; Aib = CC(C)(N)C(=O)O; βAla = NCCC(=O)O

Tests used:
[1] = test system: axenic Leishmania donovani MHOM-ET-67/L82 amastigotes; experiment: In vitro antiprotozoal assay, axenic amastigotes; assay type: cell-based; conditions: axenic amastigotes; read-out: L.don.ax. IC50
Method: (§3) The testing of the inventive compounds against Leishmania donovani (strain MHOM/ET/67/L82) was performed in 96 well plates at concentrations in serial dilutions. Tests were done in triplicate.

[2] = test system: intracellular Leishmania donovani MHOM-ET-67/L82 amastigotes; experiment: In vitro antiprotozoal assay, intracellular amastigotes; assay type: cell-based; conditions: intracellular amastigotes; read-out: L.don.InMac IC50
Method: as §3

rat myoblast cells (L6) = experiment: Cytotoxicity assay (Alamar Blue) on L6-cells; assay type: cell-based
Method: (§1) Tests were done in triplicate.
(§2) The plates were incubated for additional 2 h.

[3] = test system: Staphylococcus aureus ATCC BAA-1556, USA300 MRSA; experiment: microbe, parasite or virus in culture; assay type: cell-based
Method: Pre-formulated compound solution was diluted in 100% DMSO to prepare a 1.6 mg/mL working stock solution. […] The concentration range was 0.032 to 32 μg/mL.

[4] = Cytotoxicity assay (Alamar Blue) on L6-cells; assay type: cell-based, rat; conditions: rat
Method: as §1, §2

[5] = test system: Staphylococcus aureus ATCC 43300, MRSA; assay type: cell-based; conditions: ATCC 43300, 18 h
Method: The antibacterial activity of inventive compounds was evaluated in duplicate in a further Minimum Inhibitory Concentration (MIC) assay.
Bacteria were cultured in Cation-adjusted Mueller Hinton broth (CAMHB) at 37° C. overnight. A sample of each culture was then diluted 40-fold in fresh broth and incubated at 37° C. for 1.5-3 h. The resultant mid-log phase cultures were diluted (CFU/mL measured by OD600), then added to each well of the compound containing plates, giving a cell density of 5×10^5 CFU/mL and a total volume of 50 μL. All the plates were covered and incubated at 37° C. for 18 h without shaking.
Samples were prepared in DMSO and serially diluted 2 fold 8 times. Each sample concentration was prepared in 384-well plates, non-binding surface plate (NBS; Corning 3640) for the bacterial strain ATCC 43300, MRSA. The final DMSO concentration was at a maximum of 0.5%.
Inhibition of bacterial growth was determined measuring absorbance at 600 nm (OD600), using a Tecan M1000 Pro monochromator plate reader. The percentage of growth inhibition was calculated for each well, using the negative control (media only) and positive control (bacteria without inhibitors) on the same plate as references. […] Vancomycin was used as positive bacterial inhibitor standards.

[6] = test system: S. aureus (USA300 MRSA, BAA-1556); experiment: S. aureus dermal infection model in ICR mice, CFU/skin; assay type: in vivo, Staphylococcus aureus; conditions: 25 hours post inoculation; topical BID at 1 and 7 h post infection, 20 μL/mouse; 6027 1% in DMSO, fusidic acid 2%
Method: Inoculum preparation. The testing strain, S. aureus USA300 MRSA (BAA-1556), was obtained from the frozen working stock and thawed at room temperature. A 0.2 mL aliquot was inoculated into 20 mL Brain-Heart Infusion broth (BHI) and then incubated at 35-37° C. with shaking (120 rpm) for 8 h. Bacterial cells in the 20 mL culture were pelleted by centrifugation at 3,500×g for 15 minutes and then re-suspended in 10 mL cold PBS (>8.0×10^9 CFU/mL, OD620 1.8-2.0). The culture was then diluted in PBS to the target inoculum of 1.0×10^7 CFU/mL. The actual bacterial counts were determined by plating dilutions onto nutrient agar (NA) plates followed by 20-24 h incubation and colony counting. The actual CFU counts were 1.04×10^7 CFU/mL.
S. aureus (USA300 MRSA, BAA-1556) dermal infection model. Groups of 5 female ICR mice weighing 24±2 g were used. Animals were anesthetized with etomidate-lipuro emulsion (20 mg/10 mL) at 20 mg/kg by intravenous (IV) injection, and then the fur on the back was removed by an electric shaver, and the epidermal layer was disrupted with an abrasive paper. Mice were inoculated topically (TOP) on the wound area with S. aureus (MRSA, BAA-1556) suspension, 5 μL/mouse. The target inoculation density was 5×10^4 CFU/mouse and the actual inoculum count 5.2×10^4 CFU/mouse. Animals were housed separately after infection. Compound 6027 in DMSO at 1% was administered topically (TOP) twice (BID) at 1 and 7 h post infection. Reference control agent, fusidic acid cream at 20 mg/gram (2%), was administered TOP BID at 1 and 7 h post infection. One infected and untreated group was sacrificed at 1 h after infection for the initial (baseline) bacterial counts. The dose volumes were 20 μL/mouse for all dosing groups.
Animals were sacrificed at 1 or 25 h after inoculation with CO2 asphyxiation. The infected skin samples of the wound infection (around 2 cm 2 areas) were excised and were homogenized in 1 mL PBS (pH 7.4) with a polytron homogenizer. A 0.1 mL aliquot of each homogenate was used for serial 10-fold dilutions and plated onto NA plates for bacterial enumeration. The bacterial counts (CFU/skin) in skin tissues were calculated and the percentage decrease in counts compared to the corresponding vehicle control (placebo) was calculated with the following formula: Decrease (%)=[(CFU/skin of placebo —CFU/skin of treatment)/(CFU/skin of placebo)]×100%.

[7] = test system: Staphylococcus aureus ATCC BAA-1556; experiment: microbe, parasite or virus in culture; assay type: cell-based; conditions: Staphylococcus aureus, ATCCBAA1556; reference compound; ATCC BAA-1556, Methicillin resistant; read-out: MIC (Concurrent)
[8] = test system: Staphylococcus aureus ECL 2963646; experiment: microbe, parasite or virus in culture; assay type: cell-based; conditions: Staphylococcus aureus, ECL2963646, reference compound, read-out: MIC (Concurrent)
[9] = test system: Staphylococcus aureus NARSA NRS22; experiment: microbe, parasite or virus in culture; assay type: cell-based; conditions: Staphylococcus aureus, reference compound, read-out: MIC (Concurrent)
[10] = test system: Staphylococcus aureus NARSA VRS2; experiment: microbe, parasite or virus in culture; assay type: cell-based; conditions: Staphylococcus aureus, reference compound, read-out: MIC (Concurrent)
[11] = test system: Streptococcus agalactiae ATCC 12386; experiment: MIC broth microdilution, method 1; assay type: cell-based; conditions: Streptococcus agalactiae, ATCC12386, reference compound, read-out: MIC (Concurrent)
[12] = test system: Streptococcus pyogenes ATCC 19615; experiment: MIC broth microdilution, method 1; assay type: cell-based; conditions: Streptococcus pyogenes, ATCC19615, reference compound, read-out: MIC (Concurrent)
[13] = test system: Staphylococcus aureus ATCC BAA-1717; experiment: microbe, parasite or virus in culture; assay type: cell-based; conditions: Staphylococcus aureus, ATCCBAA1717, read-out: MIC (Concurrent) μg/mL
[14] = test system: Staphylococcus aureus ATCC 29213; experiment: MIC broth microdilution, method 1; assay type: cell-based; conditions: Staphylococcus aureus, ATCC29213, reference compound, read-out: MIC (Concurrent)
[15] = test system: Staphylococcus aureus NARSA NRS119; experiment: microbe, parasite or virus in culture; assay type: cell-based; conditions: Staphylococcus aureus, NRS119, read-out: MIC (Concurrent) μg/mL
[16] = test system: Staphylococcus aureus NARSA NRS127; experiment: microbe, parasite or virus in culture; assay type: cell-based; conditions: Staphylococcus aureus, NRS127, read-out: MIC (Concurrent) μg/mL
[17] = test system: Staphylococcus aureus NARSA NRS382; experiment: microbe, parasite or virus in culture; assay type: cell-based; conditions: Staphylococcus aureus, NRS382, read-out: MIC (Concurrent) μg/mL
[18] = test system: Staphylococcus aureus NARSA NRS383; experiment: microbe, parasite or virus in culture; assay type: cell-based; conditions: Staphylococcus aureus, NRS383, read-out: MIC (Concurrent) μg/mL
[19] = test system: Staphylococcus aureus ATCC 33591; experiment: microbe, parasite or virus in culture; assay type: cell-based; conditions: Staphylococcus aureus, ATCC33591, read-out: MIC (Concurrent) μg/mL
[20] = test system: Clostridium difficile ATCC BAA-1805; experiment: microbe, parasite or virus in culture; conditions: Clostridioides difficile, ATCCBAA1805, read-out: MIC (Concurrent) μg/mL
Method: The antibacterial activity of inventive compounds was determined in duplicate in a Minimum Inhibitory Concentration (MIC) assay.
The antibacterial activity of 6027 acetate was measured using the in vitro broth microdilution assay under assay conditions described by the Clinical and Laboratory Standards Institute. […] Pre-formulated DMSO stock solution (26.67 mg/mL) was provided by sponsor. The 26.67 mg/mL stock solution was then diluted in DMSO to prepare a 6.4 mg/mL working stock solution. The 6.4 mg/mL working stock solution was diluted by 2-fold serial titrations in DMSO, for a total of 11 test concentrations. A 4 μl aliquot of each dilution was added to 196 of broth medium seeded with the organism suspension in wells of a 96 well plate (bacterial count: 2 −8×10^5 colony forming units/mL final). The final volume was 200 μl in each well and the final DMSO concentration was 2 percent. Test concentrations were 128 to 0.125 μg/mL.
Following incubation, the plates were visually examined, and wells were scored for growth or complete growth inhibition to define the minimum inhibitory concentration. […] Vehicle-control and Vancomycin or Linezolid, as depicted at Table 8, were used as blank and positive controls, respectively.

- IC50 [1]: 0.0037 µM
- IC50 [2]: 0.0141 µM
SMILES: CCCCCCCC[C@H](NC(=O)[C@@H]1CCCN1C(=O)c1coc(-c2ccccc2)n1)C(=O)N[C@@H](CC(C)C)C(=O)NC(C)(C)C(=O)N[C@@H](CC(C)C)C(=O)N[C@@H](CC(C)C)C(=O)NC(C)(C)C(=O)NC(C)(C)C(=O)NCCC(=O)N[C@@H](C)CN(C)C [Compound 5906, (2S)-N-[(1S)-1-[(1-{[(1S)-1-{[(1S)-1-{[1-({1-[(2-{[(2S)-1-(dimethylamino)propan-2-yl]carbamoyl}ethyl)carbamoyl]-1-methylethyl}carbamoyl)-1-methylethyl]carbamoyl}-3-methylbutyl]carbamoyl}-3-methylbutyl]carbamoyl}-1-methylethyl)carbamoyl]-3-methylbutyl]-2-{[(2S)-1-(2-phenyl-1,3-oxazole-4-carbonyl)pyrrolidin-2-yl]formamido}decanamide] (X8-P[Gly(octyl)]L[Aib]LL[Aib][Aib][βAla]-{NH((S)CH(Me)CH2NMe2)})
- IC50 (rat myoblast cells (L6)): 445 nM

- IC50 [1]: 0.0099 µM
- IC50 [2]: 0.0411 µM
- MIC ([3]; ATCC BAA-1556): 4 mg/L (≈ 3.43 µM)
SMILES: Cc1nc(C(=O)N2CCC[C@H]2C(=O)N[C@@H](CCC2CCCCC2)C(=O)N[C@@H](CC(C)C)C(=O)NC(C)(C)C(=O)N[C@@H](CC(C)C)C(=O)N[C@@H](CC(C)C)C(=O)NC(C)(C)C(=O)NC(C)(C)C(=O)NCCC(=O)NC2(CN(C)C)CCC2)co1 [Compound 6025, (2S)-2-[(2S)-4-cyclohexyl-2-{[(2S)-1-(2-methyl-1,3-oxazole-4-carbonyl)pyrrolidin-2-yl]formamido}butanamido]-N-(1-{[(1S)-1-{[(1S)-1-({1-[(1-{[2-({1-[(dimethylamino)methyl]cyclobutyl}carbamoyl)ethyl]carbamoyl}-1-methylethyl)carbamoyl]-1-methylethyl}carbamoyl)-3-methylbutyl]carbamoyl}-3-methylbutyl]carbamoyl}-1-methylethyl)-4-methylpentanamide] ({Oxazole4CO(2-Me)}-P[hCha]L[Aib]LL[Aib][Aib][βAla]-{NH(1-CH2NMe2-cBu)})
- IC50 (rat myoblast cells (L6)): 1910 nM

SMILES: Cc1nc(C(=O)N2CCC[C@H]2C(=O)N[C@@H](CC2CCCCC2)C(=O)N[C@@H](CC(C)C)C(=O)NC(C)(C)C(=O)N[C@@H](CC(C)C)C(=O)N[C@@H](CC(C)C)C(=O)NC(C)(C)C(=O)NC(C)(C)C(=O)NCCC(=O)NC2(CN(C)C)CCC2)co1 [Compound 7059, (2S)-2-[(2S)-3-cyclohexyl-2-{[(2S)-1-(2-methyl-1,3-oxazole-4-carbonyl)pyrrolidin-2-yl]formamido}propanamido]-N-(1-{[(1S)-1-{[(1S)-1-({1-[(1-{[2-({1-[(dimethylamino)methyl]cyclobutyl}carbamoyl)ethyl]carbamoyl}-1-methylethyl)carbamoyl]-1-methylethyl}carbamoyl)-3-methylbutyl]carbamoyl}-3-methylbutyl]carbamoyl}-1-methylethyl)-4-methylpentanamide] (HELM PEPTIDE1{[Cc1nc(C(=O)[*:2])co1].P.[Cha].L.[Aib].L.L.[Aib].[Aib].[bAla].[CN(C)CC1(N[*:1])CCC1]}$$$$V2.0)
- IC50 [1]: 0.0013 µM
- IC50 at 68 h [4]: 6.85 µM
- MIC ([3]; ATCC BAA-1556): 4 mg/L (≈ 3.47 µM)
- MIC [5]: 32 mg/L (≈ 27.7 µM)

SMILES: CC(=O)O[C@H]1C[C@@]2(C)[C@@H](C[C@@H](O)[C@H]3[C@@]4(C)CC[C@@H](O)[C@@H](C)[C@@H]4CC[C@@]32C)/C1=C(\CCC=C(C)C)C(=O)O [Fusidic acid, fusidic acid, reference compound]
- Decrease (%) in CFU/skin vs vehicle control [6]: 99%
- LogCFU/skin after 25 hours (Standard error of the mean − SEM) [6]: 4.82 (0.26) LogCFU/skin

- MIC [7]: 2 mg/L (≈ 5.93 µM)
- MIC [8]: 2 mg/L (≈ 5.93 µM)
- MIC [9]: 2 mg/L (≈ 5.93 µM)
- MIC [10]: 2 mg/L (≈ 5.93 µM)
SMILES: CC(=O)NC[C@H]1CN(c2ccc(N3CCOCC3)c(F)c2)C(=O)O1 [Linezolid, reference compound]

SMILES: COc1cc([C@@H]2c3cc4c(cc3[C@H](O)[C@H]3COC(=O)[C@H]23)OCO4)cc(OC)c1OC [Podophyllotoxin, reference compound]
- IC50 (rat myoblast cells (L6); Rattus norvegicus, Myoblast, read-out: IC50 Concurrent (nM)): 19.3 nM
- IC50 (rat myoblast cells (L6); Rattus norvegicus, Myoblast, read-out: IC50 of reference drug): 50 ± 10 nM

SMILES: CN[C@H](CC(C)C)C(=O)N[C@H]1C(=O)N[C@@H](CC(N)=O)C(=O)N[C@H]2C(=O)N[C@H]3C(=O)N[C@H](C(=O)N[C@H](C(=O)O)c4cc(O)cc(O)c4-c4cc3ccc4O)[C@H](O)c3ccc(c(Cl)c3)Oc3cc2cc(c3O[C@@H]2O[C@H](CO)[C@@H](O)[C@H](O)[C@H]2O[C@H]2C[C@](C)(N)[C@H](O)[C@H](C)O2)Oc2ccc(cc2Cl)[C@H]1O [Vancomycin, reference compound]
- MIC [11]: 0.5 mg/L (≈ 0.345 µM)
- MIC [12]: 0.25 mg/L (≈ 0.173 µM)
- MIC [13]: 0.5 µg/mL (≈ 0.345 µM)
- MIC [14]: 0.5 mg/L (≈ 0.345 µM)
- MIC [15]: 1 µg/mL (≈ 0.69 µM)
- MIC [16]: 1 µg/mL (≈ 0.69 µM)
- MIC [17]: 1 µg/mL (≈ 0.69 µM)
- MIC [18]: 0.5 µg/mL (≈ 0.345 µM)
- MIC [19]: 1 µg/mL (≈ 0.69 µM)
- MIC ([3]; Staphylococcus aureus): 1 mg/L (≈ 0.69 µM)
- MIC [20]: 0.5 µg/mL (≈ 0.345 µM)
